Experimental data taken from patent US5945440A, “Indolocarbazole imides and the use thereof” (priority 1992, dated 1999).
One block for each molecule: values may come before it.

Experiments:
[1] = system: human tumour cells, melanoma 2; experiment: colony formation of human tumour cells: melanoma 2; format: cell-based
Method: (§1) For this test, human tumour cells are kept as solid tumour by passage on the nude mouse. For the test, an individual cell suspension is prepared and the cells then plated out in dishes containing soft agar. Under these conditions, the tumour cells multiply and form colonies.

human tumour cells [2] = experiment: colony test, human tumour cells in soft agar (tumour types in general); format: cell-based; details: certain tumour types
Method: as §1

[3] = target: T1, MLC kinase (myosin light-chain kinase) (Gallus gallus, UniProt P11799); experiment: inhibition of MLC kinase, in vitro enzyme test (32P phosphate incorporation); format: biochemical, chicken (stomach); details: for IC50: 1 nM MLC kinase, 250 μM ATP, pH 7.2, 20 minutes at 30° C., read-out: inhibition of the protein kinases, MLC-kinase IC50; for ratio of IC50 C-kinase/IC50 MLC-kinase: selectivity factor calculated from the IC50 values; for MLC kinase inhibition, in words: potency and selectivity vs protein kinase C
T1 construct: MLC kinase was purified from chicken stomach; from tissue; host or cells: chicken stomach (gizzard smooth muscle)

[4] = system: human tumour cells, melanoma 1; experiment: colony formation of human tumour cells: melanoma 1; format: cell-based
Method: as §1

[5] = system: promonocytic cell line U1; experiment: control experiments for cytotoxic action in the HIV model; format: cell-based
HIV [6] = experiment: phorbol ester-induced HIV reactivation, viral protein p24 by ELISA; format: cell-based; details: Human immunodeficiency virus 1; U1 cells, PMA stimulation; average value ± SD; n = 3; read-out: inhibition of the HIV production IC50, p24 expression
Method: (§2) In the case of the establishment of this hypothesis, use was made of the promonocytic cell line U1.
(§3) Without stimulation, no formation of HIV can be measured in these cells but, after 15 minutes stimulation with the phorbol ester PMA, it results in a massive production of HIV.
(§4) Some of the PKC inhibitors according to the present invention were investigated in this model. As a measure for the HIV production, either with the help of an ELISA test there was determined the viral protein p24 or with the help of an indicator cell, there was measured the HIV-induced formation of syncytia (giant cells produced by the fusion of individual cells).

[7] = system: human tumour cells, gastric 1; experiment: colony formation of human tumour cells: gastric 1; format: cell-based
Method: as §1

HIV [8] = experiment: HIV production in PMA-stimulated promonocytic U1 cells (both methods); format: cell-based; details: for anti-HIV action, in words: both test methods
Method: as §2, §3, §4

[9] = system: human tumour cells, ovarian 3; experiment: colony formation of human tumour cells: ovarian 3; format: cell-based
Method: as §1

HIV [10] = experiment: phorbol ester-induced HIV reactivation, HIV-induced syncytia formation with indicator cell; format: cell-based; details: Human immunodeficiency virus 1; U1 cells, PMA stimulation; average value; n = 2; read-out: inhibition of the HIV production IC50, syncytia formation
Method: as §2, §3, §4

[11] = system: human tumour cells, ovarian 2; experiment: colony formation of human tumour cells: ovarian 2; format: cell-based
Method: as §1

[12] = system: human tumour cells, colorectal 1; experiment: colony formation of human tumour cells: colorectal 1; format: cell-based
Method: as §1

[13] = system: human tumour cells, melanoma 3; experiment: colony formation of human tumour cells: melanoma 3; format: cell-based
Method: as §1

[14] = system: human tumour cells, ovarian 1; experiment: colony formation of human tumour cells: ovarian 1; format: cell-based
Method: as §1

[15] = system: human tumour cells, pancreas 1; experiment: colony formation of human tumour cells: pancreas 1; format: cell-based
Method: as §1

[16] = system: human tumour cells, lung (small cell 1); experiment: colony formation of human tumour cells: lung (small cell 1); format: cell-based
Method: as §1

protein kinase C = experiment: inhibition of protein kinase C, enzyme test; format: biochemical; details: for IC50: read-out: inhibition of the protein kinases, C-kinase IC50
Method: In order to ascertain whether it is a question of a selective inhibition of MLC kinase, the compounds were also investigated in other enzyme tests for protein kinase, including tests for protein kinase C. The results from the PKC test are also given in the following Table I. Furthermore, the Table contains selectivity factors which were calculated by the determination of the ratios of the IC50 values.

[17] = system: human tumour cells, lung (large cell); experiment: colony formation of human tumour cells: lung (large cell); format: cell-based
Method: as §1

[18] = system: human tumour cells, colon; experiment: colony formation of human tumour cells: colon; format: cell-based
Method: as §1

[19] = system: human tumour cells, gastric 2; experiment: colony formation of human tumour cells: gastric 2; format: cell-based
Method: as §1

[20] = system: human tumour cells, prostata 1; experiment: colony formation of human tumour cells: prostata 1; format: cell-based
Method: as §1

human tumour cells [21] = details: general statement on the colony test; cited from earlier work
protein kinases = details: Bio/Technology, 1990, 8, 132-135; cited from earlier work
[22] = literature / other filings; cited from earlier work
[23] = system: narcotised, spontaneously hypertensive rat (SHR); experiment: anti-hypertensive action in narcotised spontaneously hypertensive rats, i.v.; format: in vivo; details: for reduction of the average arterial blood pressure / reduction of the heart frequency: 60 minutes after administration, average ± SD; for anti-hypertensive action, in words / influencing of the heart frequency, in words: i.v.
Method: As test model, there was used the narcotised, spontaneously hypertensive rat (SHR). After intravenous administration of the inhibitor of MLC kinase, in each case 60 minutes after the administration of the compound, there were found the reductions of the average arterial blood pressure set out in the following Table 2.

T1 sequence (P11799 935-1906): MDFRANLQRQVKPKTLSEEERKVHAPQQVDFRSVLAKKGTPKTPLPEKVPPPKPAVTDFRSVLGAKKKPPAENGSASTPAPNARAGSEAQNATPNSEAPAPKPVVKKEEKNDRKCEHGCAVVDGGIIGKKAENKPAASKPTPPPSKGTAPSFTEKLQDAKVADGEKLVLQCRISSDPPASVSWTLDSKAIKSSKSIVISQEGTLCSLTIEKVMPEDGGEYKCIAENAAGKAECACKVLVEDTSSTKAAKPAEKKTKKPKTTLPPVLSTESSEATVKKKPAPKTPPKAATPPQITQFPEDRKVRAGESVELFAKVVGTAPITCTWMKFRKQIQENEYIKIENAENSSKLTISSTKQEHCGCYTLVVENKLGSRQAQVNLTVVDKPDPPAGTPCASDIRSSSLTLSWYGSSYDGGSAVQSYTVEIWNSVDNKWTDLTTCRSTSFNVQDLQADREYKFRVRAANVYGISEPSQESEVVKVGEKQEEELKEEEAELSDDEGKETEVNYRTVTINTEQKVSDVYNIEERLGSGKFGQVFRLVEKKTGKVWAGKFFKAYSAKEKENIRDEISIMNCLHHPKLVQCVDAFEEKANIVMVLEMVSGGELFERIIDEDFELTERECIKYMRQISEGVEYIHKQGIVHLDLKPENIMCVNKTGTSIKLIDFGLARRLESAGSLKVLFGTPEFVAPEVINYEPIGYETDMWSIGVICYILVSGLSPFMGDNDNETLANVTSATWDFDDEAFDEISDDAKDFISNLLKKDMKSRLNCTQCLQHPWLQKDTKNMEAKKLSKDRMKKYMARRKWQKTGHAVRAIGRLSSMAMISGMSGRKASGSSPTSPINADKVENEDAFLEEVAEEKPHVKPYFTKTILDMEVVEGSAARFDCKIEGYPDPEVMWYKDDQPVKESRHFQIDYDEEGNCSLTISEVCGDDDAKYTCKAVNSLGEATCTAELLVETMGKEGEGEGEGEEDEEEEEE

Compound: COc1cccc2c1C(=O)c1c(O)c3c(c(O)c1C2=O)C[C@@](O)(C(=O)CO)C[C@@H]3O[C@H]1C[C@H](N)[C@H](O)[C@H](C)O1 [adriamycin]
prevention of colony formation, in words (human tumour cells [21]): able to prevent this colony formation

Compound: CO[C@H]1[C@H](O)[C@@H](O)[C@H](n2c3c(Cl)cccc3c3c4c(c5c6cccc(Cl)c6[nH]c5c32)C(=O)NC4=O)O[C@@H]1CO [rebeccamycin]
inhibition of protein kinases, in words (protein kinases): do not inhibit protein kinases
anti-tumour action, in words [22]: anti-tumour action

Compound: CC1CNCCN1S(=O)(=O)c1cccc2cnccc12 (stereo not shown) [Example H-7, reference compound]
suppression of HIV production, in words (HIV [8]; 1 hour before PMA stimulation and 48 hours after): the production of HIV can be completely suppressed

Compound: O=C1NC(=O)c2c1c1c3cccc(O)c3[nH]c1c1[nH]c3c(O)cccc3c21 [BE-13193C]
anti-tumour action, in words [22]: antitumour action

Compound: NC(=O)CCn1c2ccccc2c2c3c(c4c5ccccc5[nH]c4c21)C(=O)NC3=O [Example 5, 12-(2-Carbamoylethyl)-6,7,12,13-tetrahydro-5,7-dioxo-5H-indolo[2,3-a]pyrrolo[3,4-c]carbazole]
IC50 [3]: 3.7 nM
MLC kinase inhibition, in words [3]: potent and selective inhibitors of MLC kinase
ratio of IC50 C-kinase/IC50 MLC-kinase [3]: 24
reduction of the average arterial blood pressure ([23]; 1 mg/kg i.v.): 15 ± 5%
reduction of the heart frequency ([23]; 1 mg/kg i.v.): 3 ± 3%
reduction of the average arterial blood pressure ([23]; 3 mg/kg i.v.): 23 ± 3%
reduction of the heart frequency ([23]; 3 mg/kg i.v.): 7 ± 4%
reduction of the average arterial blood pressure ([23]; 10 mg/kg i.v.): 40 ± 8%
reduction of the heart frequency ([23]; 10 mg/kg i.v.): 4 ± 3%
anti-hypertensive action, in words [23]: dosage-dependent anti-hypertensive action could be demonstrated
influencing of the heart frequency, in words [23]: scarcely observable
IC50 (protein kinase C): 87 nM

Compound: COc1ccc2c(c1)c1c3c(c4c5ccccc5n(C)c4c1n2CCC#N)C(=O)NC3=O [Example 1, 13-(2-Cyanoethyl)-6,7,12,13-tetrahydro-3-methoxy-12-methyl-5,7-dioxo-5H-indolo[2,3-a]pyrrolo[3,4-c]-carbazole]
IC50 [3]: 200 nM
ratio of IC50 C-kinase/IC50 MLC-kinase [3]: 0.008
cytotoxic action as cause of the anti-HIV action, in words [5]: the anti-HIV action did not come about due to a cytotoxic action
IC50 (HIV [6]): 118 ± 98 nM
anti-HIV action, in words (HIV [8]): an anti-HIV action could be demonstrated
IC50 (HIV [10]): 28 nM
protein kinase C inhibition, in words (protein kinase C; potency and selectivity vs MLC kinase): potent and selective protein kinase C inhibitor
IC50 (protein kinase C): 1.5 nM

Compound: CN(C)CC(O)Cn1c2ccccc2c2c3c(c4c5ccccc5n(C)c4c21)C(=O)NC3=O (racemic) [Example 10, (±)-12-(3-Dimethylamino-2-hydroxy-1-propyl)-6,7,12,13-tetrahydro-13-methyl-5,7-dioxo-5H-indolo[2,3-a]pyrrolo-[3,4-c]carbazole]
inhibition of tumour cell growth, in words (human tumour cells [2]): the growth of the tumour cells can be inhibited depending upon the concentration
ratio of IC50 C-kinase/IC50 MLC-kinase [3]: 0.2
IC50 (protein kinase C): 21 nM

More lines, main results first:

IC50 [1]: < 100 nM
IC50 [3]: 6.1 nM
ratio of IC50 C-kinase/IC50 MLC-kinase [3]: 2.3
IC50 [4]: 120 nM
IC50 (HIV [6]): 36 ± 15 nM
IC50 [7]: 1200 nM
IC50 [9]: < 100 nM
IC50 (HIV [10]): 29 nM
IC50 [11]: 2600 nM
IC50 [12]: 6000 nM
IC50 [13]: 210 nM
IC50 [14]: 200 nM
IC50 [15]: 1500 nM
IC50 [16]: < 100 nM
IC50 (protein kinase C): 14 nM
IC50 [17]: < 100 nM
IC50 [18]: 1700 nM
IC50 [19]: < 100 nM
IC50 [20]: 200 nM
Compound: CN(C)CCCn1c2ccc(O)cc2c2c3c(c4c5cc(O)ccc5[nH]c4c21)C(=O)NC3=O [Example 2c]
inhibition at 10 µM ([1]; 10^-5 M): 97%
inhibition at 1 µM ([1]; 10^-6 M): 99%
inhibition at 0.1 µM ([1]; 10^-7 M): 90%
inhibition of tumour cell growth, in words (human tumour cells [2]): the growth of the tumour cells can be inhibited depending upon the concentration
inhibition at 10 µM ([4]; 10^-5 M): 89%
inhibition at 1 µM ([4]; 10^-6 M): 81%
inhibition at 0.1 µM ([4]; 10^-7 M): 48%
cytotoxic action as cause of the anti-HIV action, in words [5]: the anti-HIV action did not come about due to a cytotoxic action
inhibition at 10 µM ([7]; 10^-5 M): 99%
inhibition at 1 µM ([7]; 10^-6 M): 47%
inhibition at 0.1 µM ([7]; 10^-7 M): 29%
anti-HIV action, in words (HIV [8]): an anti-HIV action could be demonstrated
inhibition at 10 µM ([9]; 10^-5 M): 99%
inhibition at 1 µM ([9]; 10^-6 M): 94%
inhibition at 0.1 µM ([9]; 10^-7 M): 74%
inhibition at 10 µM ([11]; 10^-5 M): 75%
inhibition at 1 µM ([11]; 10^-6 M): 33%
inhibition at 0.1 µM ([11]; 10^-7 M): 5%
inhibition at 10 µM ([12]; 10^-5 M): 62%
inhibition at 1 µM ([12]; 10^-6 M): 8%
inhibition at 0.1 µM ([12]; 10^-7 M): 0%
inhibition at 10 µM ([13]; 10^-5 M): 73%
inhibition at 1 µM ([13]; 10^-6 M): 76%
inhibition at 0.1 µM ([13]; 10^-7 M): 38%
inhibition at 10 µM ([14]; 10^-5 M): 96%
inhibition at 1 µM ([14]; 10^-6 M): 75%
inhibition at 0.1 µM ([14]; 10^-7 M): 40%
inhibition at 10 µM ([15]; 10^-5 M): 83%
inhibition at 1 µM ([15]; 10^-6 M): 44%
inhibition at 0.1 µM ([15]; 10^-7 M): 38%
inhibition at 10 µM ([16]; 10^-5 M): 97%
inhibition at 1 µM ([16]; 10^-6 M): 97%
inhibition at 0.1 µM ([16]; 10^-7 M): 82%
inhibition at 10 µM ([17]; 10^-5 M): 100%
inhibition at 1 µM ([17]; 10^-6 M): 100%
inhibition at 0.1 µM ([17]; 10^-7 M): 97%
inhibition at 10 µM ([18]; 10^-5 M): 94%
inhibition at 1 µM ([18]; 10^-6 M): 37%
inhibition at 0.1 µM ([18]; 10^-7 M): 8%
inhibition at 10 µM ([19]; 10^-5 M): 77%
inhibition at 1 µM ([19]; 10^-6 M): 66%
inhibition at 0.1 µM ([19]; 10^-7 M): 65%
inhibition at 10 µM ([20]; 10^-5 M): 98%
inhibition at 1 µM ([20]; 10^-6 M): 99%
inhibition at 0.1 µM ([20]; 10^-7 M): 29%

IC50 [3]: 110 nM
ratio of IC50 C-kinase/IC50 MLC-kinase [3]: 0.4
IC50 (protein kinase C): 42 nM
Compound: CC(C)N(CCCn1c2ccccc2c2c3c(c4c5ccccc5[nH]c4c21)C(=O)NC3=O)C(C)C [Example 7g, 12-(3-diisopropylaminopropyl)-6,7,12,13-tetrahydro-5,7-dioxo-5H-indolo[2,3-a]pyrrolo[3,4-c]carbazole]
inhibition of tumour cell growth, in words (human tumour cells [2]): the growth of the tumour cells can be inhibited depending upon the concentration

IC50 [3]: 23 nM
ratio of IC50 C-kinase/IC50 MLC-kinase [3]: > 435
reduction of the heart frequency ([23]; 3 mg/kg i.v.): 7 ± 3%
reduction of the heart frequency ([23]; 10 mg/kg i.v.): 8 ± 2%
influencing of the heart frequency, in words [23]: scarcely observable
IC50 (protein kinase C): > 10000 nM
Compound: Cn1c2ccccc2c2c3c(c4c5ccccc5[nH]c4c21)C(=O)NC3=O [Example 7c, 6,7,12,13-tetrahydro-12-methyl-5,7-dioxo-5H-indolo[2,3-a]pyrrolo[3,4-c]carbazole]
MLC kinase inhibition, in words [3]: potent and selective inhibitors of MLC kinase
reduction of the average arterial blood pressure ([23]; 3 mg/kg i.v.): 10 ± 7%
reduction of the average arterial blood pressure ([23]; 10 mg/kg i.v.): 23 ± 2%
anti-hypertensive action, in words [23]: dosage-dependent anti-hypertensive action could be demonstrated
